Reference: patent publication US20260167623A1 (NIKANG THERAPEUTICS, INC., priority 2022, published 2026)

Biological target: T1, CDK2 (Homo sapiens, UniProt P24941)
T1 construct: High-Throughput Measurement of Cellular Endogenous CDK2; endogenous in cells; host or cells: OVCAR3
Assay: Inhibition of CDK2: phospho-Rb (S807/811) HTRF measurement in OVCAR3 cells, 24 h
Assay type: cell-based
Conditions: 24 h compound treatment, read-out: pRB_OVCAR3_24h
Experimental: Inhibition of CDK2: Phospho-R^b Measurement in Cells
Phosphorylation of RB protein at S807/811 were measured using HTRF phospho-RB cellular kits (Cat #64RBS807PEG) from Cisbio.
On Day 1, OVCAR3 (CDK2 dependent cell line) cells were seeded into 96-well tissue-culture treated plates at 20,000 cells/well in 200 μL and incubated overnight at 37° C. in CO2 atmosphere. On Day 2, the cells were treated with test compounds at concentrations from 0.3 to 10,000 nM using HP D300 digital dispenser. Twenty-four hours after compound treatment, cell culture media is removed by flicking the plate and tapping the plate against clean paper towel. 30 μL 1× lysis buffer was supplemented from the kit was added to each well and the plate was incubated at room temperature on shaker for 30 min. After homogenization by pipetting up and down, 8 μL cell lysate from 96-well cell culture plate was transferred to 384-well small volume white detection plate. 2 μL premixed detection solution was added and the plate was covered with sealer. To prepare the detection solution, d2 conjugated-phospho-RB antibody and Eu-cryptate conjugated phosphor-RB antibody were diluted into detection buffer following manufacturer's instruction. Detection plates were incubated for 4 h at room temperature and read on ClarioStar (BMG Labtech) in TR-FRET mode (665 nM and 620 nM). The TR-FRET ratio (665 nM/620 nM) was plotted against the compound concentration and normalized to DMSO controls. Half maximal inhibition concentration (IC50) values were calculated with a four-parameter logistic fit using GraphPad Prism (version 8; La Jolla, CA).

SMILES	IC50 [nM]
Cn1nc(N2CCC(=O)NC2=O)c2ncc(C3CCN(CC4CCN(c5cccc(S(=O)(=O)N6CCC(Nc7ncc(C(F)(F)F)cn7)CC6)c5)CC4)CC3)cc21 [Example 212, 1-(1-methyl-6-(1-((1-(3-((4-((5-(trifluoromethyl)pyrimidin-2-yl)amino)piperidin-1-yl)sulfonyl)phenyl)piperidin-4-yl)methyl)piperidin-4-yl)-1H-pyrazolo[4,3-b]pyridin-3-yl)dihydropyrimidine-2,4(1H,3H)-dione]	500 to 2500
O=C1CCC(NC(=O)c2ccc(C3CCN(CC4CCN(c5cccc(S(=O)(=O)N6CCC(Nc7ncc(C(F)(F)F)cn7)CC6)c5)CC4)CC3)cc2F)C(=O)N1 (stereo not shown) [Example 236, N-(2,6-dioxopiperidin-3-yl)-2-fluoro-4-(1-((1-(3-((4-((5-(trifluoromethyl)pyrimidin-2-yl)amino)piperidin-1-yl)sulfonyl)phenyl)piperidin-4-yl)methyl)piperidin-4-yl)benzamide]	100 to 500
Cn1nc(N2CCC(=O)NC2=O)c2ccc(N3CC4(CN(Cc5cccc(S(=O)(=O)N6CCC(Nc7ncc(Cl)cn7)CC6)c5)C4)C3)cc21 [Example 46]	500 to 2500
Cn1nc(N2CCC(=O)NC2=O)c2ncc(C3CCN(CC4CCN(c5cccc(S(=O)(=O)N6CCC(Nc7ncc(Cl)cn7)CC6)c5)CC4)CC3)cc21 [Example 215]	500 to 2500
Cn1nc(N2CCC(=O)NC2=O)c2ccc(C3CCN(Cc4cncc(S(=O)(=O)N5CCC(Nc6ncc(C(F)(F)F)cn6)CC5)c4)CC3)cc21 [Example 130, 1-(1-methyl-6-(1-((5-((4-((5-(trifluoro-methyl)pyrimidin-2-yl)amino)piperidin-1-yl)sulfonyl)pyridin-3-yl)methyl)piperidin-4-yl)-1H-indazol-3-yl)dihydropyrimidine-2,4(1H,3H)-dione]	1 to 100
O=C1CCC(N2C(=O)c3cc(F)c(N4CCN(Cc5cccc(S(=O)(=O)N6CCC(Nc7ncc(Cl)cn7)CC6)c5)CC4)cc3C2=O)C(=O)N1 (stereo not shown) [Example 22, 5-(4-(3-((4-((5-chloropyrimidin-2-yl)amino)piperidin-1-yl)sulfonyl)benzyl)-piperazin-1-yl)-2-(2,6-dioxopiperidin-3-yl)-6-fluoroisoindoline-1,3-dione]	500 to 2500
Cn1c(=O)n(C2CCC(=O)NC2=O)c2cccc(C3CCN(Cc4cccc(S(=O)(=O)N5CCC(Nc6ncc(OC(F)F)cn6)CC5)c4)CC3)c21 (stereo not shown) [Example 128, 3-(4-(1-(3-((4-((5-(difluoromethoxy)-pyrimidin-2-yl)amino)piperidin-1-yl)sulfonyl)benzyl)piperidin-4-yl)-3-methyl-2-oxo-2,3-dihydro-1H-benzo[d]imidazol-1-yl)piperidine-2,6-dione]	1 to 100
Cn1c(=O)n(C2CCC(=O)NC2=O)c2cccc(C3CCN(CC4CCN(c5cc(C(F)(F)F)cc(S(=O)(=O)N6CCC(Nc7ncc(Cl)cn7)CC6)c5)CC4)CC3)c21 (stereo not shown) [Example 173, 3-(4-(1-((1-(3-((4-((5-chloropyrimidin-2-yl)amino)piperidin-1-yl)sulfonyl)-5-(trifluoromethyl)phenyl)piperidin-4-yl)methyl)piperidin-4-yl)-3-methyl-2-oxo-2,3-dihydro-1H-benzo[d]imidazol-1-yl)piperidine-2,6-dione]	500 to 2500
Cn1nc(N2CCC(=O)NC2=O)c2ccc(C3CCN(CCCC4CCN(S(=O)(=O)N5CCC(Nc6ncc(C(F)(F)F)cn6)CC5)CC4)CC3)cc21 [Example 36]	500 to 2500
CN(C)c1cnc(NC2CCN(S(=O)(=O)c3cccc(CN4CCC(c5ccc6c(N7CCC(=O)NC7=O)nn(C)c6c5)CC4)c3)CC2)nc1 [Example 70, 1-(6-(1-(3-((4-((5-(dimethylamino)-pyrimidin-2-yl)amino)piperidin-1-yl)-sulfonyl)benzyl)piperidin-4-yl)-1-methyl-1H-indazol-3-yl)dihydropyrimidine-2,4(1H,3H)-dione]	> 2500
Cn1nc(N2CCC(=O)NC2=O)c2ccc(C3CCN(CC4CCN(c5cccc(S(=O)(=O)N6CCC(Nc7ncc(F)cn7)CC6)c5)CC4)CC3)cc21 [Example 193, 1-(6-(1-((1-(3-((4-((5-fluoropyrimidin-2-yl)amino)piperidin-1-yl)sulfonyl)phenyl)piperidin-4-yl)methyl)piperidin-4-yl)-1-methyl-1H-indazol-3-yl)dihydropyrimidine-2,4(1H,3H)-dione]	500 to 2500
Cn1nc(N2CCC(=O)NC2=O)c2cnc(C3CCN(CC4CCN(c5cccc(S(=O)(=O)N6CCC(Nc7ncc(Cl)cn7)CC6)c5)CC4)CC3)cc21 [Example 228, 1-(6-(1-((1-(3-((4-((5-chloropyrimidin-2-yl)amino)piperidin-1-yl)sulfonyl)phenyl)piperidin-4-yl)methyl)piperidin-4-yl)-1-methyl-1H-pyrazolo[4,3-c]pyridin-3-yl)dihydropyrimidine-2,4(1H,3H)-dione]	100 to 500
O=C1CCN(c2nn(CC(F)(F)F)c3cc(C4CCN(Cc5cccc(S(=O)(=O)N6CCC(Nc7ncc(Cl)cn7)CC6)c5)CC4)ccc23)C(=O)N1 [Example 21]	500 to 2500
O=C1CCN(c2cncc3c(C4CCN(CC5CCN(c6cccc(S(=O)(=O)N7CCC(Nc8ncc(Cl)cn8)CC7)c6)CC5)CC4)cccc23)C(=O)N1 [Example 194, 1-(8-(1-((1-(3-((4-((5-chloropyrimidin-2-yl)amino)piperidin-1-yl)sulfonyl)phenyl)piperidin-4-yl)methyl)piperidin-4-yl)isoquinolin-4-yl)dihydropyrimidine-2,4(1H,3H)-dione]	100 to 500
O=C1CCC(n2c(=O)n(C3CCN(CC4CCN(c5cccc(S(=O)(=O)N6CCC(Nc7ncc(C(F)(F)F)cn7)CC6)c5)CC4)CC3)c3ccccc32)C(=O)N1 (stereo not shown) [Example 171, 3-(2-oxo-3-(1-((1-(3-((4-((5-(trifluoromethyl)pyrimidin-2-yl)amino)piperidin-1-yl)sulfonyl)phenyl)piperidin-4-yl)methyl)piperidin-4-yl)-2,3-dihydro-1H-benzo[d]imidazol-1-yl)piperidine-2,6-dione]	100 to 500

More lines, now with the values ahead:

IC50 [nM]	SMILES
> 2500	Cn1cc(-c2cnc(NC3CCN(S(=O)(=O)c4cccc(N5CCC(CN6CCC(c7ccc8c(N9CCC(=O)NC9=O)nn(C)c8c7)CC6)CC5)c4)CC3)nc2)cn1 [Example 155, 1-(1-methyl-6-(1-((1-(3-((4-((5-(1-methyl-1H-pyrazol-4-yl)pyrimidin-2-yl)amino)piperidin-1-yl)sulfonyl)phenyl)piperidin-4-yl)methyl)piperidin-4-yl)-1H-indazol-3-yl)dihydropyrimidine-2,4(1H,3H)-dione]
500 to 2500	Cn1nc(N2CCC(=O)NC2=O)c2ccc(CN3CCN(c4cccc(S(=O)(=O)N5CCC(Nc6ncc(C(F)(F)F)cn6)CC5)c4)CC3)cc21 [Example 179, 1-(1-methyl-6-((4-(3-((4-((5-(trifluoromethyl)pyrimidin-2-yl)amino)piperidin-1-yl)sulfonyl)phenyl)piperazin-1-yl)methyl)-1H-indazol-3-yl)dihydropyrimidine-2,4(1H,3H)-dione]
1 to 100	C[C@@H]1CN(CC2CCN(c3cccc(S(=O)(=O)N4CCC(Nc5ncc(Cl)cn5)CC4)c3)CC2)C[C@H](C)N1c1ccc2c(N3CCC(=O)NC3=O)nn(C)c2c1 [Example 127, 1-(6-((2S,6R)-4-((1-(3-((4-((5-chloro-pyrimidin-2-yl)amino)piperidin-1-yl)-sulfonyl)phenyl)piperidin-4-yl)methyl)-2,6-dimethylpiperazin-1-yl)-1-methyl-1H-indazol-3-yl)dihydropyrimidine-2,4(1H,3H)-dione]
100 to 500	O=C1CCN(c2ccc(N3CCN(CC4CCN(c5cccc(S(=O)(=O)N6CCC(Nc7ncc(C(F)(F)F)cn7)CC6)c5)CC4)CC3)cc2)C(=O)N1 [Example 113, 1-(4-(4-((1-(3-((4-((5-(trifluoromethyl)-pyrimidin-2-yl)amino)piperidin-1-yl)sulfonyl)phenyl)piperidin-4-yl)methyl)piperazin-1-yl)phenyl)-dihydropyrimidine-2,4(1H,3H)-dione]
500 to 2500	O=C1CCC(N2Cc3cc(C4CN(Cc5cccc(S(=O)(=O)N6CCC(Nc7ncc(Cl)cn7)CC6)c5)C4)ccc3C2=O)C(=O)N1 (stereo not shown) [Example 50, 3-(5-(1-(3-((4-((5-chloropyrimidin-2-yl)amino)piperidin-1-yl)sulfonyl)benzyl)-azetidin-3-yl)-1-oxoisoindolin-2-yl)piperidine-2,6-dione]
100 to 500	Cn1cc(C2CCC(=O)NC2=O)c2ccc(C3CCN(CC4CCN(c5cccc(S(=O)(=O)N6CCC(Nc7ncc(Cl)cn7)CC6)c5)CC4)CC3)cc21 (stereo not shown) [Example 254, 3-(6-(1-((1-(3-((4-((5-chloropyrimidin-2-yl)amino)piperidin-1-yl)sulfonyl)phenyl)piperidin-4-yl)methyl)piperidin-4-yl)-1-methyl-1H-indol-3-yl)piperidine-2,6-dione]
500 to 2500	Cn1nc(N2CCC(=O)NC2=O)c2ccc(C3CN(Cc4cccc(S(=O)(=O)N5CCC(Nc6ncc(C(F)(F)F)cn6)CC5)c4)C3)cc21 [Example 49, 1-(1-methyl-6-(1-(3-((4-((5-(trifluoro-methyl)pyrimidin-2-yl)amino)piperidin-1-yl)sulfonyl)benzyl)azetidin-3-yl)-1H-indazol-3-yl)dihydropyrimidine-2,4(1H,3H)-dione]
